Test results reported in paper PMC7114241 (Antiviral Research, 2011).

Target: SARS-CoV M^pro (Severe acute respiratory syndrome coronavirus, UniProt P0C6X7)
Format: biochemical

Dabcyl-KTSAVLQ↓SGFRKME-Edans amide
apparent k cat/K m: 2359 M^−1·19 s^−1 | k cat/K m: 7863 M⁻¹ s⁻¹ | K m (pH 7.3): 24.5 µM
